Measured values: ChEMBL document CHEMBL4507310, “Data for DCP probe A-1211212” (2021)

What was measured:
[1] = molecular target: Protein kinase C delta type (Homo sapiens) (UniProt Q05655); details: Compound concentration 1000.0 nM
[2] = system: Tyrosine-protein kinase ABL1 (Homo sapiens), P00519 [Y253F]; details: Compound concentration 1000.0 nM
[3] = molecular target: Serine/threonine-protein kinase OSR1 (Homo sapiens) (UniProt O95747); details: Compound concentration 1000.0 nM
[4] = molecular target: Cyclin-dependent kinase 3 (Homo sapiens) (UniProt Q00526); details: Compound concentration 1000.0 nM
Chain of Cyclin-dependent kinase 3 (Homo sapiens) (Q00526 whole entry, looked up): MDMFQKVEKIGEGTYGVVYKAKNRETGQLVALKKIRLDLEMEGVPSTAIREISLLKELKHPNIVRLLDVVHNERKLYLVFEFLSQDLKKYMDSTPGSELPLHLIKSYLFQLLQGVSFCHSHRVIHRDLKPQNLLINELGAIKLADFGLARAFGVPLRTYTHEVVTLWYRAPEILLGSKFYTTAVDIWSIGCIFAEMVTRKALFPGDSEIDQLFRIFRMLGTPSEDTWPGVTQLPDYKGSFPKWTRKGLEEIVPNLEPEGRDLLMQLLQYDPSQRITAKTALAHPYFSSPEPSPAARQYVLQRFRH

[5] = molecular target: T1, Alpha-1B adrenergic receptor (Homo sapiens) (UniProt P35368); assay: Alpha1B (h) Eurofins-Cerep binding assay; parameters: ligand concentration 0.15 nM; details: filed as antagonist, Compound concentration 10.0 uM
T1 sequence (whole entry): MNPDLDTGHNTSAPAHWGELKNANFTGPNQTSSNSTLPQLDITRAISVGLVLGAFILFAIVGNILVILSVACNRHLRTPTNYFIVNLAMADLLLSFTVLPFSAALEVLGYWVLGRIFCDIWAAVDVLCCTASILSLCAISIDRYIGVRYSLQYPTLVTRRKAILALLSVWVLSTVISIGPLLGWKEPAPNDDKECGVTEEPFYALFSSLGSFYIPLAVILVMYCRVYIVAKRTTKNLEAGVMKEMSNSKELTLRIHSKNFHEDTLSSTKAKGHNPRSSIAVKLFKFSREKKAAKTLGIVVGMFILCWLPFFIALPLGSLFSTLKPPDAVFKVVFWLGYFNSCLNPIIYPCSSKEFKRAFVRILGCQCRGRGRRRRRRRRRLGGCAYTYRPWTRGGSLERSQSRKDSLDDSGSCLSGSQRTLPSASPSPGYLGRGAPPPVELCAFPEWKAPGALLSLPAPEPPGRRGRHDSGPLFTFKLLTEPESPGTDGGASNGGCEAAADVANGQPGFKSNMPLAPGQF

[6] = molecular target: RAC-alpha serine/threonine-protein kinase (Homo sapiens) (UniProt P31749); details: Compound concentration 1000.0 nM
[7] = molecular target: Sigma intracellular receptor 2 (Homo sapiens, UniProt Q5BJF2); details: Compound concentration 10.0 uM
[8] = molecular target: Casein kinase I isoform alpha-like (Homo sapiens) (UniProt Q8N752); details: Compound concentration 1000.0 nM
[9] = molecular target: Serine/threonine-protein kinase N1 (Homo sapiens) (UniProt Q16512); details: Compound concentration 1000.0 nM
[10] = molecular target: Serine/threonine-protein kinase PAK 5 (Homo sapiens) (UniProt Q9P286); details: Compound concentration 1000.0 nM
Chain of Serine/threonine-protein kinase PAK 5 (Homo sapiens) (Q9P286 whole entry, looked up): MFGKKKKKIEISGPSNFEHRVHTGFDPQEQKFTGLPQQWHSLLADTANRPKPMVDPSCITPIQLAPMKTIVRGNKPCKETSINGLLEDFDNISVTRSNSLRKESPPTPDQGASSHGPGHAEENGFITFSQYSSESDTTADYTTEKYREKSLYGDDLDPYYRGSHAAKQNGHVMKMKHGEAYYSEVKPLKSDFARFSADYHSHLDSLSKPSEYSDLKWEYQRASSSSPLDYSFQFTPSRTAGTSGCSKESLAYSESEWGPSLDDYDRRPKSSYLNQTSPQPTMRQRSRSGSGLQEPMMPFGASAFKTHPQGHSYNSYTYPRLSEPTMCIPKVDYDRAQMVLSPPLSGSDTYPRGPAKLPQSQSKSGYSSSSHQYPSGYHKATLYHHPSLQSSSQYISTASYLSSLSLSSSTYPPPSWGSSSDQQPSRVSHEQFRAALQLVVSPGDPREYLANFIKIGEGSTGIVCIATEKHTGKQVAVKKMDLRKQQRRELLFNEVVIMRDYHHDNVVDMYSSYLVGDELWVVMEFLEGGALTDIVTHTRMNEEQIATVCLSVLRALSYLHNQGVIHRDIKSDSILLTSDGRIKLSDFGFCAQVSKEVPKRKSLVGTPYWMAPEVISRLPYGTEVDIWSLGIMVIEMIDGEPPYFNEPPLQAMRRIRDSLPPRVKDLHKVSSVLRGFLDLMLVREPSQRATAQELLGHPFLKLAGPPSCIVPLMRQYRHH

[11] = molecular target: Tyrosine-protein kinase Yes (Homo sapiens) (UniProt P07947); details: Compound concentration 1000.0 nM
[12] = molecular target: Phosphatidylinositol 4-kinase beta (Homo sapiens) (UniProt Q9UBF8); details: Compound concentration 1000.0 nM
Chain of Phosphatidylinositol 4-kinase beta (Homo sapiens) (Q9UBF8 2-816 limits assumed): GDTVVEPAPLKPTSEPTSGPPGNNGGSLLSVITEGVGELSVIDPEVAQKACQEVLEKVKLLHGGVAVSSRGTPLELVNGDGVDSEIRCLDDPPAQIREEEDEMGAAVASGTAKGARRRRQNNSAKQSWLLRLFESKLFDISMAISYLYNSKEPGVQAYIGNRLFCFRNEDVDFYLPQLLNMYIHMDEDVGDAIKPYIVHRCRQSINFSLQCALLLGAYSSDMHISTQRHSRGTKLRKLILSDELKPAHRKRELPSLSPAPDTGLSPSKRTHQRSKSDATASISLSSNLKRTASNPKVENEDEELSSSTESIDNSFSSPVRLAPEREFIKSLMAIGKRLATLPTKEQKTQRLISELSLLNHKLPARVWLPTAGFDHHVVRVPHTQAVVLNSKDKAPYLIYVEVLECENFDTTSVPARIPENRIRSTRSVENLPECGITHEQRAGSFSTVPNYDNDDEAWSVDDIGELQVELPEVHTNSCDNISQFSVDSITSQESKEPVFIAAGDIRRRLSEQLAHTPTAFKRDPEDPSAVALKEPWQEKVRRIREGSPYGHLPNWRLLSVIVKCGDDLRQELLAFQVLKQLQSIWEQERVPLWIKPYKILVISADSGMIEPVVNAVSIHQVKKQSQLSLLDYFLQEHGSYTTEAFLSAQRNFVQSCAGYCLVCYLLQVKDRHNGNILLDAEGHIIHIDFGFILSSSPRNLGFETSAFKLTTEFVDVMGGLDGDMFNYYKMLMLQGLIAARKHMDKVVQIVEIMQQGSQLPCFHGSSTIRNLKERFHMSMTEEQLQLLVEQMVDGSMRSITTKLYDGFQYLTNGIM

[13] = system: Receptor-type tyrosine-protein kinase FLT3 (Homo sapiens), P36888 [K663Q]; details: Compound concentration 1000.0 nM
[14] = molecular target: Mitogen-activated protein kinase kinase kinase 12 (Homo sapiens) (UniProt Q12852); details: Compound concentration 1000.0 nM
[15] = molecular target: Mitogen-activated protein kinase kinase kinase 19 (Homo sapiens) (UniProt Q56UN5); details: Compound concentration 1000.0 nM
[16] = molecular target: Leucine-rich repeat serine/threonine-protein kinase 2 (Homo sapiens) (UniProt Q5S007); details: Compound concentration 1000.0 nM
[17] = molecular target: SRSF protein kinase 2 (Homo sapiens) (UniProt P78362); details: Compound concentration 1000.0 nM
Chain of SRSF protein kinase 2 (Homo sapiens) (P78362 whole entry, looked up): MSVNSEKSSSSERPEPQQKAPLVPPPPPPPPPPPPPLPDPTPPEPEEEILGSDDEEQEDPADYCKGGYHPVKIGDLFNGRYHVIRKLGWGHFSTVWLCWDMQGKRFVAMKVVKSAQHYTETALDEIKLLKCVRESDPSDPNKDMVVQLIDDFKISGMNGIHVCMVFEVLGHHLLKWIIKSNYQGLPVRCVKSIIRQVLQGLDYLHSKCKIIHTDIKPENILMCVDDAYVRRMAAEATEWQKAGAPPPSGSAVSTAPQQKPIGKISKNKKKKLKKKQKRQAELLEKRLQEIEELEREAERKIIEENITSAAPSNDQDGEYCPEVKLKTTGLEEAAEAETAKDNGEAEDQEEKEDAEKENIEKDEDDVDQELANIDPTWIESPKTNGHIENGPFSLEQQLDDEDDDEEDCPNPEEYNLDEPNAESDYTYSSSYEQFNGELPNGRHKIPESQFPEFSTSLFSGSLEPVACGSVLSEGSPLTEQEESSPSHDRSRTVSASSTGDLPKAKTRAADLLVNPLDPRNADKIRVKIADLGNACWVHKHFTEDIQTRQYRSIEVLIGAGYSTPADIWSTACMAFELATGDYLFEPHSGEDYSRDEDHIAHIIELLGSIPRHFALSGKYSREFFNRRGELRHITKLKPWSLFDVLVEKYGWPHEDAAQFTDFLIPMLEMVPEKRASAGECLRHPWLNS

[18] = molecular target: Mitogen-activated protein kinase kinase kinase 13 (Homo sapiens) (UniProt O43283); details: Compound concentration 1000.0 nM
[19] = molecular target: Muscarinic acetylcholine receptor M3 (Homo sapiens) (UniProt P20309); assay: M3 (h) Eurofins-Cerep binding assay; parameters: ligand concentration 0.2 nM; details: filed as antagonist, Compound concentration 10.0 uM
Chain of Muscarinic acetylcholine receptor M3 (Homo sapiens) (P20309 whole entry, looked up): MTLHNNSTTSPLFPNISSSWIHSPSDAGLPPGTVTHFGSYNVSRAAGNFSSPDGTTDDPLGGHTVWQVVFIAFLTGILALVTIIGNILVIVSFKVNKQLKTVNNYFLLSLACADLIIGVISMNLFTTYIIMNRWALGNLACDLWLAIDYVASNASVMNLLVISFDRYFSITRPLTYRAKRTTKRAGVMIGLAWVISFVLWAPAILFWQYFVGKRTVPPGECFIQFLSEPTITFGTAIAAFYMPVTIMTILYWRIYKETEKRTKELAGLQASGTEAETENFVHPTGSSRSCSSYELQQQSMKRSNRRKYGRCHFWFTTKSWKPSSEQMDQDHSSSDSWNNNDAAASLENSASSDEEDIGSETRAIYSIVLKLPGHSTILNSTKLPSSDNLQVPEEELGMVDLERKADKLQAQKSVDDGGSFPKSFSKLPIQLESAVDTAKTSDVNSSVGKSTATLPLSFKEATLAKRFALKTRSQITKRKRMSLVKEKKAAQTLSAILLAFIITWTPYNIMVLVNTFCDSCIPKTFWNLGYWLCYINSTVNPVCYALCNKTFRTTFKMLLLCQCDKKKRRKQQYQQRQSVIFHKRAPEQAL

[20] = molecular target: MAP/microtubule affinity-regulating kinase 3 (Homo sapiens) (UniProt P27448); details: Compound concentration 1000.0 nM
Chain of MAP/microtubule affinity-regulating kinase 3 (Homo sapiens) (P27448 whole entry, looked up): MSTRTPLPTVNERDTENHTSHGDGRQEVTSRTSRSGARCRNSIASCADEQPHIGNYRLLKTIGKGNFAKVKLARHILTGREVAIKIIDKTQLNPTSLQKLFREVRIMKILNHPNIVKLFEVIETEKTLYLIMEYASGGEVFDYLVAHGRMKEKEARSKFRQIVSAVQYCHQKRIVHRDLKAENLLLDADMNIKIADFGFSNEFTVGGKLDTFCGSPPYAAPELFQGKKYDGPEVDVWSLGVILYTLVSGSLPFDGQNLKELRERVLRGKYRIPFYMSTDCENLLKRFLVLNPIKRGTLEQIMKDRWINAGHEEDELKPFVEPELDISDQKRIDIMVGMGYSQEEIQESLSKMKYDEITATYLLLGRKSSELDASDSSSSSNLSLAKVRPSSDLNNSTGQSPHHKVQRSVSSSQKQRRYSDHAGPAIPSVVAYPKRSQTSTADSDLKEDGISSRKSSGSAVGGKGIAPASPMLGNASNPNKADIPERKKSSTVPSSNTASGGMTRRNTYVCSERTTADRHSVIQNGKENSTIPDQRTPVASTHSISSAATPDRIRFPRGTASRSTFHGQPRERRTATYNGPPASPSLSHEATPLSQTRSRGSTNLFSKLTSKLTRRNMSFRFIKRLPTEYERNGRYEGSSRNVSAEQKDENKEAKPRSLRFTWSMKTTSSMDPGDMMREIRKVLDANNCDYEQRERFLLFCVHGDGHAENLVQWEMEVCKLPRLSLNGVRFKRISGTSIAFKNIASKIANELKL

[21] = molecular target: L-type Ca2+ channel (diltiazem site, benzothiazepines) (Rattus norvegicus, UniProt P22002+P27732+Q02485); assay: Ca2+ channel (L, diltiazem site) (benzothiazepines) Eurofins-Cerep binding assay; assay type: protein assay; parameters: incubation time 120 min, incubation temperature RT, ligand concentration 15 nM; details: rat cerebral cortex, probe [3H]diltiazem (15 nM), compound concentration 10 uM, read-out: % Inhibition of Control Specific Binding (Mean n=2)
[22] = molecular target: G protein-coupled receptor kinase 3 (Homo sapiens) (UniProt P35626); details: Compound concentration 1000.0 nM
[23] = molecular target: Serine/threonine-protein kinase MAK (Homo sapiens) (UniProt P20794); details: Compound concentration 1000.0 nM
Chain of Serine/threonine-protein kinase MAK (Homo sapiens) (P20794 whole entry): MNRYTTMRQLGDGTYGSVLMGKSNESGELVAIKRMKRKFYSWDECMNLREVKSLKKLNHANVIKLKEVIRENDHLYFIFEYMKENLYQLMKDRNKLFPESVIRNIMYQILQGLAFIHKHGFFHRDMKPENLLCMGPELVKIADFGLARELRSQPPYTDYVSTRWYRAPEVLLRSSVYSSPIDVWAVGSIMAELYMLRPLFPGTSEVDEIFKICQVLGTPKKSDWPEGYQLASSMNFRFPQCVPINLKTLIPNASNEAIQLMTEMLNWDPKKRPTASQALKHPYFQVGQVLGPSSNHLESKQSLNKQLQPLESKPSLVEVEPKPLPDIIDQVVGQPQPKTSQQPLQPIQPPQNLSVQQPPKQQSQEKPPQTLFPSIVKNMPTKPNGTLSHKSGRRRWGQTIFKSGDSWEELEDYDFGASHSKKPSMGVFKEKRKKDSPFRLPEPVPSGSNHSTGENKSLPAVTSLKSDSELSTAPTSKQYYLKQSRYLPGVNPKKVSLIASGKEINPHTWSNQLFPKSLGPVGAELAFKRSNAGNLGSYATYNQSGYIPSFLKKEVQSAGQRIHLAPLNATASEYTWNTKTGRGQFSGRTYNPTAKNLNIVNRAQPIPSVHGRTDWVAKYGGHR

[24] = molecular target: Transient receptor potential cation channel subfamily M member 6 (Homo sapiens) (UniProt Q9BX84); details: Compound concentration 1000.0 nM
[25] = molecular target: Adenosine receptor A2b (Homo sapiens) (UniProt P29275); assay: A2B (h) Eurofins-Cerep binding assay; parameters: ligand concentration 5 nM; details: filed as antagonist, Compound concentration 10.0 uM
[26] = system: Receptor-type tyrosine-protein kinase FLT3 (Homo sapiens), P36888 [UNDEFINED MUTATION]; details: Compound concentration 1000.0 nM
[27] = molecular target: Serine/threonine-protein kinase tousled-like 1 (Homo sapiens) (UniProt Q9UKI8); details: Compound concentration 1000.0 nM
[28] = molecular target: T2, Alpha-2A adrenergic receptor (Homo sapiens) (UniProt P08913); assay: Alpha2A (h) Eurofins-Cerep binding assay; parameters: ligand concentration 1 nM; details: filed as antagonist, Compound concentration 10.0 uM
T2 sequence (whole entry): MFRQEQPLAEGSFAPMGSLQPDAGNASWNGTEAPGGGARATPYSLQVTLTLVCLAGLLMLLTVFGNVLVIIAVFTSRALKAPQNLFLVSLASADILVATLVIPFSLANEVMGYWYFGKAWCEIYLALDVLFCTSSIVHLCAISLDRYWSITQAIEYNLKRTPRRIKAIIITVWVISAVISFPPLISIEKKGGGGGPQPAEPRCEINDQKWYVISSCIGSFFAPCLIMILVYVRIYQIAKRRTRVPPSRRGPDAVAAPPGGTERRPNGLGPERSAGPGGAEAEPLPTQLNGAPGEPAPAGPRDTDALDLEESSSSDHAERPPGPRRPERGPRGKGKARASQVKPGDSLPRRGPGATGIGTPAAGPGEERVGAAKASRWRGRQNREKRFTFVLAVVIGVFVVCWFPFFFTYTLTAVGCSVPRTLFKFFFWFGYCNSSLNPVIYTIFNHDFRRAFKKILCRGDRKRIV

[29] = molecular target: Death-associated protein kinase 3 (Homo sapiens) (UniProt O43293); details: Compound concentration 1000.0 nM
[30] = molecular target: Proto-oncogene tyrosine-protein kinase Src (Homo sapiens) (UniProt P12931); details: Compound concentration 1000.0 nM
[31] = molecular target: Prostaglandin G/H synthase 2 (Homo sapiens) (UniProt P35354); assay: COX2(h) Eurofins-Cerep enzyme and uptake assay; details: Compound concentration 10.0 uM

Chain of Serine/threonine-protein kinase OSR1 (Homo sapiens) (O95747 2-527 limits assumed): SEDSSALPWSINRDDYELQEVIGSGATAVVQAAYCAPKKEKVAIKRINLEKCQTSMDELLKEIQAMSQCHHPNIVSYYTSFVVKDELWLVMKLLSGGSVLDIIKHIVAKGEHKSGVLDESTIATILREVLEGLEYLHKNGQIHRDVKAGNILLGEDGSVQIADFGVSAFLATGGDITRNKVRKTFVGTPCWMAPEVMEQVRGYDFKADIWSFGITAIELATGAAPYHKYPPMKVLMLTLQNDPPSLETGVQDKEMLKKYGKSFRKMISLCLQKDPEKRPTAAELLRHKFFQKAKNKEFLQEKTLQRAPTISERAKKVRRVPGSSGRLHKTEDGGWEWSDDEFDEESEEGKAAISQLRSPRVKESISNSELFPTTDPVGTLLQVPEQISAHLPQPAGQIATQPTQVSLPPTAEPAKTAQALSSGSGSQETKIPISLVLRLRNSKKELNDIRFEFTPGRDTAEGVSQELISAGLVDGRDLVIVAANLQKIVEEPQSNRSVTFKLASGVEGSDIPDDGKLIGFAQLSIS

| Structure (SMILES) | residual activity [1] | residual activity [2] | residual activity [3] | residual activity [4] | % Inhibition of Control Specific Binding (Mean n=2) [5] | residual activity [6] | inhibition [7] | residual activity [8] | residual activity [9] | residual activity [10] | residual activity [11] | residual activity [12] | residual activity [13] | residual activity [14] | residual activity [15] | residual activity [16] | residual activity [17] | residual activity [18] | % Inhibition of Control Specific Binding (Mean n=2) [19] | residual activity [20] | also measured |
| --- | --- | --- | --- | --- | --- | --- | --- | --- | --- | --- | --- | --- | --- | --- | --- | --- | --- | --- | --- | --- | --- |
| CO[C@H]1CC[C@H](CNc2ccc(S(=O)(=O)NC(=O)c3ccc(N4CCN(CC5=C(c6ccc(Cl)cc6)CC(C)(C)CC5)CC4)cc3Oc3cnc4[nH]ccc4c3)cc2[N+](=O)[O-])CC1 [A-1211212] | 70% | 100% | 76% | 100% | 15.4% | 72% | 60.7% | 85% | 83% | 99% | 88% | 97% | 91% | 100% | 64% | 100% | 55% | 89% | 10.3% | 96% | inhibition at 120 min, 10 µM [21]: -6.2%; residual activity [22]: 79%; residual activity [23]: 90%; residual activity [24]: 87%; % Inhibition of Control Specific Binding (Mean n=2) [25]: -36.3%; residual activity [26]: 86%; residual activity [27]: 82%; % Inhibition of Control Specific Binding (Mean n=2) [28]: -11.2%; residual activity [29]: 68%; residual activity [30]: 78%; % Inhibition of Control Values (Mean n=2) [31]: 14.2% |
| O=C(NS(=O)(=O)c1ccc(NCC2CCOCC2)c([N+](=O)[O-])c1)c1ccc(N2CCN(Cc3ccc(C(F)(F)F)cc3-c3ccc(Cl)cc3)CC2)cc1Oc1cnc2[nH]ccc2c1 [A-1210227] | 100% | 96% | 83% | 100% | 13.5% | 74% | 54.3% | 100% | 100% | 95% | 100% | 79% | 100% | 100% | 71% | 100% | 100% | 91% | 8.9% | 100% | inhibition at 120 min, 10 µM [21]: -124%; residual activity [22]: 78%; residual activity [23]: 97%; residual activity [24]: 89%; % Inhibition of Control Specific Binding (Mean n=2) [25]: -10.1%; residual activity [26]: 100%; residual activity [27]: 100%; % Inhibition of Control Specific Binding (Mean n=2) [28]: -5.2%; residual activity [29]: 91%; residual activity [30]: 76%; % Inhibition of Control Values (Mean n=2) [31]: 78.1% |
